From PubChem BioAssay (NCI)
Where “and” joins values, the source holds several entries; their conditions need not be identical. Identical values can stand only once.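 These data come from cells grown in 96-well plates and exposed to compound for 48 hours at five concentrations. Abbreviation: GI50, concentration required for 50% inhibition of growth. TGI denotes the concentration required for complete inhibition of growth.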

Columns and labels:
Experiment in all cases: NCI tumour cell line growth inhibition, 48 h
SF-539 CNS = test system: SF-539 CNS
HS 578T breast = test system: HS 578T breast
CAKI-1 renal = test system: CAKI-1 renal
SN12C renal = test system: SN12C renal
NCI/ADR-RES ovarian = test system: NCI/ADR-RES ovarian
SK-MEL-5 melanoma = test system: SK-MEL-5 melanoma
OVCAR-5 ovarian = test system: OVCAR-5 ovarian
SNB-19 CNS = test system: SNB-19 CNS
IGROV1 ovarian = test system: IGROV1 ovarian
HCT-15 colon = test system: HCT-15 colon
HOP-62 NSCLC = test system: HOP-62 NSCLC
NCI-H460 lung = test system: NCI-H460 lung
OVCAR-4 ovarian = test system: OVCAR-4 ovarian
DU-145 prostate = test system: DU-145 prostate
UACC-62 melanoma = test system: UACC-62 melanoma

Row | Compound | TGI (SF-539 CNS) | TGI (HS 578T breast) | TGI (CAKI-1 renal) | TGI (SN12C renal) | TGI (NCI/ADR-RES ovarian) | TGI (SK-MEL-5 melanoma) | TGI (OVCAR-5 ovarian) | TGI (SNB-19 CNS) | TGI (IGROV1 ovarian) | TGI (HCT-15 colon) | TGI (HOP-62 NSCLC) | TGI (NCI-H460 lung) | TGI (OVCAR-4 ovarian) | TGI (DU-145 prostate) | TGI (UACC-62 melanoma) | GI50 (SK-MEL-5 melanoma)
1 | O=C(O)c1ccc(NC(NC(=O)C(C(F)(F)F)C(F)(F)F)(C(F)(F)F)C(F)(F)F)cc1 | > 100 µM | > 100 µM | > 100 µM | > 100 µM | > 100 µM | > 100 µM | > 100 µM | > 100 µM | > 100 µM | > 100 µM | – | – | – | – | – | –
2 | CCCCCCCCCCCCCCCCOCC(Cl)COP(=O)(O)OP(=O)(O)OCC1OC(n2cc(C)c(=O)[nH]c2=O)CC1O (centres undefined) | > 100 µM | 86.4 µM | > 100 µM | > 100 µM | > 100 µM | > 100 µM | > 100 µM | > 100 µM | > 100 µM | > 100 µM | > 100 µM | > 100 µM | > 100 µM | – | – | –
3 | CN(C)S(=O)(=O)/N=C/c1cccc(/C=N/S(=O)(=O)N(C)C)c1 | > 100 µM | – | > 100 µM | > 100 µM | > 100 µM | > 100 µM | > 100 µM | > 100 µM | – | > 100 µM | > 100 µM | > 100 µM | > 100 µM | > 100 µM | > 100 µM | –
4 | CN(NC(=O)c1cccs1)C1=NCCCCN1 | > 100 µM | > 100 µM | – | – | > 100 µM | > 100 µM | > 100 µM | > 100 µM | > 100 µM | > 100 µM | > 100 µM | > 100 µM | > 100 µM | – | > 100 µM | –
5 | CN(C)CCN=C1Nc2ccccc2C(=S)N2CSCC12 (centres undefined) | – | > 100 µM | > 100 µM | > 100 µM | > 100 µM | > 100 µM | > 100 µM | > 100 µM | > 100 µM | > 100 µM | > 100 µM | > 100 µM | > 100 µM | > 100 µM | > 100 µM | –
6 | CCOC(=O)[C@@]12C3C=CC(CC3)[C@]1(C(=O)c1ccccc1)C(=O)C(=O)N2c1ccccc1 (some centres undefined) | > 100 µM | – | > 100 µM | > 100 µM | > 100 µM | > 100 µM | > 100 µM | > 100 µM | – | > 100 µM | > 100 µM | > 100 µM | > 100 µM | > 100 µM | > 100 µM | –
7 | COC(=O)/C=C1/CCC(C)(C(=O)NS(=O)(=O)c2ccc(C)cc2)C1(C)C (centres undefined) | > 100 µM | – | > 100 µM | > 100 µM | > 100 µM | > 100 µM | > 100 µM | > 100 µM | > 100 µM | > 100 µM | > 100 µM | > 100 µM | > 100 µM | > 100 µM | > 100 µM | –
8 | O=C(CSc1nc2[nH]ncc2c(=O)[nH]1)c1ccc(Cl)cc1 | > 100 µM | > 100 µM | > 100 µM | > 100 µM | > 100 µM | > 100 µM | > 100 µM | > 100 µM | > 100 µM | > 100 µM | > 100 µM | > 100 µM | > 100 µM | – | > 100 µM | –
9 | COc1cc(C2C(C#N)=C(N)OC3=C2CCS(=O)(=O)c2ccc(C)cc23)cc(OC)c1OC (centres undefined) | – | > 100 µM | > 100 µM | > 100 µM | > 100 µM | > 100 µM | > 100 µM | > 100 µM | > 100 µM | > 100 µM | > 100 µM | > 100 µM | > 100 µM | > 100 µM | > 100 µM | –
10 | COc1ccc2[nH]cc([C@@H]3C4CCC(C4)[C@H]3NCc3cccc(CN[C@H]4C5CCC(C5)[C@@H]4c4c[nH]c5ccc(OC)cc45)c3)c2c1 | 3.21 µM and 2.5 µM | – | 2.79 µM and 3.21 µM | 3.1 µM and 2.93 µM | 3.04 µM and 2.98 µM | 2.52 µM and 2.99 µM | 3.12 µM and 2.88 µM | 2.94 µM | 2.61 µM | 1.95 µM and 2.39 µM | 2.89 µM and 2.97 µM | 0.556 µM and 1.12 µM | 2.77 µM and 2.75 µM | 3.31 µM and 3.08 µM | 3.19 µM | 1.25 µM
11 | COC(CC1(/C=C/O[Si](C(C)C)(C(C)C)C(C)C)C(=O)N(C)c2ccccc21)OC (centres undefined) | – | 45.2 µM | > 100 µM | > 100 µM | 78.4 µM | > 100 µM | > 100 µM | > 100 µM | – | > 100 µM | > 100 µM | > 100 µM | > 100 µM | > 100 µM | > 100 µM | –
12 | Nc1ccn(C2CCC(CO)O2)c(=S)n1 (centres undefined) | > 100 µM | > 100 µM | > 100 µM | > 100 µM | > 100 µM | > 100 µM | > 100 µM | > 100 µM | > 100 µM | > 100 µM | > 100 µM | > 100 µM | – | > 100 µM | > 100 µM | –
13 | CC(=O)OC1CCCn2c1nc1c2C(=O)C(C)=C(N2CC2)C1=O (centres undefined) | 1.43 µM | – | 0.687 µM | 1.5 µM | – | 0.351 µM | 1.32 µM | 1.38 µM | 3.35 µM | 0.726 µM | 0.625 µM | 0.296 µM | 2.35 µM | – | 0.77 µM | –
14 | CC(=O)CSc1c(-c2ccccc2)c(=O)n(-c2ccccc2)c(=S)n1-c1ccccc1 | – | > 100 µM | > 100 µM | > 100 µM | > 100 µM | > 100 µM | > 100 µM | > 100 µM | > 100 µM | > 100 µM | > 100 µM | > 100 µM | > 100 µM | > 100 µM | > 100 µM | –
15 | NC(=S)N/N=C1\NC(=O)/C(=C/c2ccc3c(c2)OCO3)S1 | > 100 µM | – | 71.8 µM | > 100 µM | 78.7 µM | 37.7 µM | 73.1 µM | 53.6 µM | 49.4 µM | 82.6 µM | 51.5 µM | > 100 µM | 75.8 µM | 88 µM | – | –
16 | CC(C)(C)OC(=O)NCCc1cccc2c1oc1c(CCC(=O)O)cccc12 | > 100 µM | – | > 100 µM | > 100 µM | – | > 100 µM | > 100 µM | > 100 µM | > 100 µM | > 100 µM | – | > 100 µM | > 100 µM | – | > 100 µM | –
